Counter-ions that a name gives are not always drawn.

A word on the Km: it is the substrate concentration at which the rate is half of its maximum.

For data set [1], the system named is T1, rNanB.
T1 construct: recombinant, expressed in E. coli from pET-28a (pTNB20566); C-terminal 6xHis tag; 699 amino acid residues
Briefly: Fluorescence-based NA assay with eight MUNANA concentrations (3.13 to 400 uM) at pH 6.5, enzymes diluted 1:10,000, stopped after 5 min, 4-MU release fitted to the Michaelis-Menten equation by non-linear regression. The data set is classed as biochemical. The settings on record: n = 3. The protocol: (§1) Activity of 10-fold dilutions (1:1,000 to 1:100,000) of rNanA and rNanB was determined with a fluorescence-based NA assay (FL assay) using the substrate 2-(4-methylumbelliferyl)-α-D-N-acetylneuraminic acid sodium salt hydrate (MUNANA, Sigma–Aldrich GmbH) as published ([Richter et al., 2015]). The activity of rNanB was additionally tested at pH 5. Relative FL units (RFU) were read using the microplate reader FLUOstar Omega (BMG Labtech GmbH, Ortenberg, Germany) and converted to 4-MU concentration (Sigma–Aldrich GmbH) according to the 4-MU standard curve (Supplementary Figure 1). Velocity (μM/min) and Km value (μM) for rNanA and rNanB were determined using eight MUNANA concentrations (3.13 to 400 μM) at pH 6.5. After 5 min the reaction was stopped, RFU were measured and converted to 4-MU concentrations according to the 4-MU standard curve. The Enzyme Kinetics Module of SigmaPlot 12.0 (Systat Software, San Jose, CA, USA) was applied to fit the data to the Michaelis–Menten equation using non-linear regression.
(§2) Both rNanA and rNanB were expressed in E. coli and their activity was confirmed by the FL assay at pH 5 (for rNanB only) and pH 6.5 (for both rNanA and rNanB). […] Activities of both recombinant S. pneumoniae NAs were further confirmed under more physiological conditions in a hemagglutination assay (HA assay; [Richter et al., 2015]). […]

Data set [2] has as its system CC(=O)N[C@H]1[C@H]([C@H](O)[C@H](O)CO)O[C@@](Oc2ccc3c(C)cc(=O)oc3c2)(C(=O)O)C[C@@H]1O. The description is as above. It is filed as biochemical. The protocol: as §1, §2
The test system of data set [3] is A(H1N1)pdm09 influenza virus A/Jena/8178/09. Briefly: Inhibition of Jena/8178 replication (yield, spread) by NAI in A549 cells, without pneumococcal NA. The data set is classed as cell-based. Particulars: 48 h after infection, untreated control = 100%. The protocol:
(§3) Confluent MDCK and A549 cells were mock-infected with test medium or infected with Jena/8178 (0.1 TCID50/cell) for 1 h (37°C; 5% CO2). After three washing steps with test medium, test medium or various rNanA or rNanB dilutions (1:100 to 1:1,000,000) were added. After 48 h at 37°C the supernatant was taken and stored at –20°C until plaque titer determination (virus yield analysis). The remaining cells were fixed with ice-cold methanol for 20 min and stored after washing with PBS in PBS at 4°C until immunocytochemical staining (virus spread analysis).
(§4) To determine the virus yield in collected supernatants, plaque assays were conducted on confluent MDCK cells grown in 12-well tissue culture plates (Greiner Bio-One GmbH). Briefly, after virus adsorption (37°C; 1 h), inoculum was replaced by 1 mL test medium containing also 0.4% agarose and 50 mM magnesium chloride (VEB Laborchemikalien, Apolda, Germany). After 48 h of incubation at 37°C, cells were fixed and stained with a solution of 0.4% crystal violet in a mixture of formalin (3% v/v) and ethanol (1.67% v/v) in water overnight. Plaques were counted over a light box after removal of the agar overlay.
(§5) Virus spread was analyzed by detecting viral nucleoprotein with a monoclonal antibody (Acris GmbH, Hiddenhausen, Germany) by immunocytochemical staining according to the manufacturers protocol (DAKO, Hamburg, Germany; [Bauer et al., 2007]).
(§6) The inhibitory effect of the NAI on Jena/8178 (inhibition of virus yield and spread) was determined in absence and presence of rNanA or rNanB in A549 cells.
(§7) ^a The plaque titer of untreated control (influenzavirus A/Jena/8178/09) reached in A549 cells (48 h after infection) in the absence and presence of rNanA or rNanB was set as 100% virus yield. It was used to calculate the percentage of virus yield after NAI treatment. Mean and standard deviations were calculated of at least three assays with two replicates.

Data set [4] deals with T2, rNanA (Streptococcus pneumoniae, UniProt P62575).
T2 construct: made in house; host or cells: E. coli
T2 sequence (P62575 54-1035): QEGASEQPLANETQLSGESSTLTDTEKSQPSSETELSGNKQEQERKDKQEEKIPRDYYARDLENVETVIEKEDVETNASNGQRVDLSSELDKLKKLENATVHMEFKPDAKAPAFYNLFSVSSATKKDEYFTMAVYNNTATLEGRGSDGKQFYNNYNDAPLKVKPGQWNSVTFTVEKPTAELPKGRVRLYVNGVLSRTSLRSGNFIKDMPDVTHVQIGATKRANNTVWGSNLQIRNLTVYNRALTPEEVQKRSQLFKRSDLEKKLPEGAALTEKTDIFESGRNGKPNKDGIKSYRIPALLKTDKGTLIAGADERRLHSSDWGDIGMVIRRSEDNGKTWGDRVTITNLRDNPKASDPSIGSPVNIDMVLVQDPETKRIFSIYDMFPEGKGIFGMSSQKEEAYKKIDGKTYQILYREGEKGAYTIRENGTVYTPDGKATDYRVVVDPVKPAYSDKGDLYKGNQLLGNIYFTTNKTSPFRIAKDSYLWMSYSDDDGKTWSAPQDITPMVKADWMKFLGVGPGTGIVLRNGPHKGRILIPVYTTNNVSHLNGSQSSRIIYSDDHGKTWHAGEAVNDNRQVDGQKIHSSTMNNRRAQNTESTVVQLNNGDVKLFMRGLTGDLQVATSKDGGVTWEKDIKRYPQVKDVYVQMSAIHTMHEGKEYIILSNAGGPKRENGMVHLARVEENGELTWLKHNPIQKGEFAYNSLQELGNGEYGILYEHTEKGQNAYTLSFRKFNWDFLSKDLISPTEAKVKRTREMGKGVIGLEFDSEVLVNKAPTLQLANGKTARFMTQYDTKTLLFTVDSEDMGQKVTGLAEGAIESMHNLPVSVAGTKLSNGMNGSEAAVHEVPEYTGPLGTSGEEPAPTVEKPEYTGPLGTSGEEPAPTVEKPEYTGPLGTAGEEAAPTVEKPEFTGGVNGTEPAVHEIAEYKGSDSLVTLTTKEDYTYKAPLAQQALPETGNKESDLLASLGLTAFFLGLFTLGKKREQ
Briefly: HA assay (hemagglutination of NA-treated human erythrocytes with peanut lectin), inhibition of rNanA. The data set is classed as biochemical, Streptococcus pneumoniae DSM20566. The settings on record: 1 h incubation. The protocol:
Neuraminidase activity of both NAs was further confirmed based on hemagglutination of NA-treated human erythrocytes in the presence of peanut lectin (HA assay) as described recently ([Richter et al., 2015]; [Walther et al., 2015]).
(§8) The NAI susceptibility of rNanA and rNanB was evaluated with FL assay (rNanA and rNanB diluted 1:10,000 in FL buffer; pH 6.5) and HA assay as published recently ([Richter et al., 2015]) with slight modification of the HA assay. For stability reasons, rNanA and rNanB were diluted 1:5,000 in phosphate buffered saline (PBS) containing 100 μg/mL bovine serum albumin and stored at –20°C until use. The incubation period of the recombinant proteins with the human erythrocytes was only 1 h. At least three individual experiments were performed.

Data set [5] concerns A(H1N1)pdm09 influenza virus A/Jena/8178/09. The data set is described as follows: Inhibition of Jena/8178 replication (yield, spread) by NAI in A549 cells in presence of rNanB. The settings on record: 48 h after infection, rNanB 1:10,000, untreated control = 100%. The data set is classed as cell-based. The protocol: as §3, §4, §5, §6, §7
For data set [6], the target named is T3, rNanB (Streptococcus pneumoniae serotype 4, UniProt Q54727).
T3 construct: encodes a C-terminal 6xHis-tagged NanB in size of 699 amino acid residues; 6xHis (C); made in house; host or cells: E. coli (vector pET-28a, plasmid pTNB20566)
T3 sequence (Q54727 30-697): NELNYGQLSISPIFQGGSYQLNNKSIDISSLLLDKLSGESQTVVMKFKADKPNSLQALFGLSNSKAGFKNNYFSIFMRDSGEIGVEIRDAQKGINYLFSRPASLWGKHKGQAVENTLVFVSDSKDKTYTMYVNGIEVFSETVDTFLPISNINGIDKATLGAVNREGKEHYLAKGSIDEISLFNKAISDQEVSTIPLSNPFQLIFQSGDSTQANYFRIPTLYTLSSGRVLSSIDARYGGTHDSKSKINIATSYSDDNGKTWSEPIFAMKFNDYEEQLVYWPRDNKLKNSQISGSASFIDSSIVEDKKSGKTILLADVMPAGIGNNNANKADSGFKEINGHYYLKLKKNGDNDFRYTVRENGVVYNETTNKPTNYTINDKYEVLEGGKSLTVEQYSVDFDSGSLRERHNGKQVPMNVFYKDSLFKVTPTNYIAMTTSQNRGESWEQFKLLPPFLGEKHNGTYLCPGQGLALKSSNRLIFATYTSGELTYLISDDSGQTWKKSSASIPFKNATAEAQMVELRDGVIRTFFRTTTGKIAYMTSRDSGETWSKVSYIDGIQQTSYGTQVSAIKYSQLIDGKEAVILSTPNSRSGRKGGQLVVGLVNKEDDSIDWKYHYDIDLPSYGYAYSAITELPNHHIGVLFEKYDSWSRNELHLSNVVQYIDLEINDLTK
Briefly: HA assay (hemagglutination of NA-treated human erythrocytes with peanut lectin), inhibition of rNanB. It is filed as biochemical, Streptococcus pneumoniae DSM20566. The settings on record: 1 h incubation. The protocol: as §8

Data set [7] concerns A(H1N1)pdm09 influenza virus A/Jena/8178/09. The data set is described as follows: Inhibition of Jena/8178 replication (yield, spread) by NAI in A549 cells in presence of rNanA. It is filed as cell-based. The settings on record: for spread and yield of the virus in the presence of NanA: oseltamivir at 1 μM; for Percentage of Virus Yield after NAI Treatment, with rNanA: 48 h after infection, rNanA 1:10,000, untreated control = 100%. The protocol:
as §3, §4, §5, §6, §7

Data set [8] has as its target Influenza Virus A/Jena/8178/09 Neuraminidase (Influenza A virus (A/Jena/8178/2009(H1N1)), UniProt A0A088CA11). Briefly: FL assay, inhibition of viral neuraminidase. Particulars: A/Jena/8178/09 NA; maximum tested concentration 100 μM; read-out: Inhibitory Concentration of NAIs, FL Assay (mean IC50). The data set is classed as biochemical.
For data set [9], the target named is T3, rNanB. Briefly: FL assay (MUNANA), inhibition of rNanB. The settings on record: for Inhibitory Concentration of NAIs against rNanB, FL assay: rNanB diluted 1:10,000, pH 6.5, MUNANA substrate. The data set is classed as biochemical, Streptococcus pneumoniae DSM20566. The protocol: as §1, §8
In data set [10] the target is T2, rNanA. The data set is described as follows: FL assay (MUNANA), inhibition of rNanA. It is filed as biochemical, Streptococcus pneumoniae DSM20566. The protocol: as §1, §8

As for `CC(=O)N[C@H]1[C@H]([C@H](O)[C@H](O)CO)O[C@@](Oc2ccc3c(C)cc(=O)oc3c2)(C(=O)O)C[C@@H]1O` [MUNANA, 2-(4-methylumbelliferyl)-α-D-N-acetylneuraminic acid sodium salt hydrate], the Km in the data set with rNanB [1] stood at 684 µM.

In the case of rNanA (Streptococcus pneumoniae R6), in [2], the Km amounted to 39.70 µM.

As to `O=C(CCc1ccccc1)C[C@@H]1C[C@@H](c2ccccc2)c2c(cc(/C=C/c3ccccc3)oc2=O)O1` [Katsumadain A, katsumadain A], the “Percentage of Virus Yield after NAI Treatment, without NA” value (from here on “Percentage of Virus Yield … without NA”) came to 54.9 ± 25.7% in data set [3] (NAI 10 µM) and 29.0 ± 15.1% in [3] (NAI 20 µM). Moreover, the “Inhibitory Concentration of NAIs against rNanA, HA assay” value on rNanA [4] was 3.2 ± 0.0 µM. In addition, the “Percentage of Virus Yield after NAI Treatment, with rNanB” value (“Percentage of Virus Yield … with rNanB” for short) in [5] (NAI 20 µM) was 21.0 ± 4.1%. The “Inhibitory Concentration of NAIs against rNanB, HA assay” value on rNanB [6] worked out at 5.4 ± 4.0 µM. Besides, the “spread and yield of the virus in the presence of NanA” value (“spread and yield of the virus” for short) in data set [7] (48 h) is recorded as “inhibited”. The “Percentage of Virus Yield after NAI Treatment, with rNanA” value (from here on “Percentage of Virus Yield … with rNanA”) in [7] (NAI 10 µM) is listed as 67.3 ± 6.2%; in data set [7] (NAI 20 µM), 28.1 ± 13.7%.

For `CC(=O)N[C@H]1[C@H]([C@H](O)[C@H](O)CO)OC(C(=O)O)=C[C@@H]1O` [DANA, N-acetyl-2,3-dehydro-2-deoxyneuraminic acid], the “Percentage of Virus Yield … without NA” value in [3] (NAI 10 µM) was found to be 78.9 ± 36.1%; in [3] (NAI 50 µM), 34.8 ± 17.4%. Besides, at rNanA [4], the “Inhibitory Concentration of NAIs against rNanA, HA assay” value stood at 100.0 ± 0.0 µM. Moreover, the “Percentage of Virus Yield … with rNanB” value in data set [5] (NAI 50 µM) was determined as 27.4 ± 1.0%. For the same compound, in [8], the IC50 was determined as 3.6 ± 0.4 µM. In [7] (48 h), the “spread and yield of the virus” value was “inhibited”. For the same compound, the “Percentage of Virus Yield … with rNanA” value is 81.1 ± 27.9% in data set [7] (NAI 10 µM) and 13.5 ± 8.3% in [7] (NAI 50 µM).

In the case of `COc1cc2oc(-c3ccc(O)cc3O)c(CC=C(C)C)c(=O)c2c(O)c1/C=C/C(C)C` [Artocarpin], the “Percentage of Virus Yield … without NA” value in data set [3] (NAI 10 µM) is reported as 70.2 ± 10.5%; in data set [3] (NAI 20 µM), 84.8 ± 15.7%. The “Inhibitory Concentration of NAIs against rNanA, HA assay” value on rNanA [4] worked out at 10.0 ± 0.0 µM. Moreover, the “Percentage of Virus Yield … with rNanB” value in [5] (NAI 20 µM) was determined as 77.1 ± 37.8%. Moreover, the “Inhibitory Concentration of NAIs against rNanB, FL assay” value on rNanB [9] was “Not active”. Also, the “Inhibitory Concentration of NAIs against rNanB, HA assay” value on rNanB [6] amounted to 10.0 ± 0.0 µM. On rNanA [10], this compound yielded an IC50 of 10 ± 6.3 µM. The “spread and yield of the virus” value in data set [7] (48 h) is “inhibited”. Moreover, the “Percentage of Virus Yield … with rNanA” value in data set [7] (NAI 10 µM) stood at 67.3 ± 25.5%; in data set [7] (NAI 20 µM) it was 44.3 ± 11.0%.

As for `CC(=O)N[C@H]1[C@H]([C@H](O)[C@H](O)CO)OC(C(=O)O)=C[C@@H]1N=C(N)N` [Zanamivir, zanamivir], the figures for the “Percentage of Virus Yield … without NA” value in [3] (NAI 0.1 µM) and in data set [3] (NAI 1 µM) were 4.4 ± 1.5% and 1.4 ± 1.0%, respectively. In addition, the “Inhibitory Concentration of NAIs against rNanA, HA assay” value at rNanA [4] is recorded as “Not active”. Besides, the “Percentage of Virus Yield … with rNanB” value in [5] (NAI 0.1 µM) worked out at 6.2 ± 2.9%; in data set [5] (NAI 1 µM) it was 0.7 ± 0.3%. The IC50 against rNanB [9] and against rNanA [10] was more than 100 µM in each case. On rNanB [9], the “Inhibitory Concentration of NAIs against rNanB, FL assay” value is listed as “Not active”. On rNanB [6], the “Inhibitory Concentration of NAIs against rNanB, HA assay” value is “Not active”. The “Inhibitory Concentration of NAIs against rNanA, FL assay” value on rNanA [10] (rNanA diluted 1:10,000, pH 6.5, MUNANA substrate) is recorded as “Not active”. In data set [7] (48 h, spread and yield), the “antiviral effect in the presence of rNanA” value is “abolished”. Also, the “Percentage of Virus Yield … with rNanA” value in data set [7] (NAI 0.1 µM) was found to be 109.0 ± 35.5%; in data set [7] (NAI 1 µM), 86.5 ± 46.2%.
